In the case of Cc1cccc(-c2n[nH]cc2-c2ccc(F)c(-c3ccc(S(N)(=O)=O)c(F)c3)c2)n1 [Example 147, 2′,3-Difluoro-5′-[3-(6-methylpyridin-2-yl)-1H-pyrazol-4-yl]-1,1′-biphenyl-4-sulfonamide], the melting point is reported as 119 to 121 °C.

Work on Cc1cccc(-c2n[nH]cc2-c2ccc(F)c(-c3ccc(O)c(S(N)(=O)=O)c3)c2)n1 [Example 148, 2′-Fluoro-4-hydroxy-5′-[3-(6-methylpyridin-2-yl)-1H-pyrazol-4-yl]-1,1′-biphenyl-3-sulfonamide] yielded a melting point of 104 to 109 °C.

In the case of Cc1cccc(-c2n[nH]cc2-c2ccc(F)c(-c3cc(F)c(S(N)(=O)=O)cc3F)c2)n1 [Example 149, 2,2′,5-Trifluoro-5′-[3-(6-methylpyridin-2-yl)-1H-pyrazol-4-yl]-1,1′-biphenyl-4-sulfonamide], the melting point is reported as 122 to 125 °C.

In the case of Cc1cccc(-c2n[nH]cc2-c2ccc(F)c(-c3ccc(S(N)(=O)=O)c(C(F)(F)F)c3)c2)n1 [Example 152, 2′-Fluoro-5′-[3-(6-methylpyridin-2-yl)-1H-pyrazol-4-yl]-3-(trifluoromethyl)-1,1′-biphenyl-4-sulfonamide], the melting point is reported as 107 to 110 °C.

With Cc1cccc(-c2n[nH]cc2-c2ccc(F)c(-c3ccc(C(C)(O)CF)cn3)c2)n1 (stereo not drawn) [Example 163, 1-Fluoro-2-(6-{2-fluoro-5-[3-(6-methylpyridin-2-yl)-1H-pyrazol-4-yl]phenyl}pyridin-3-yl)propan-2-ol] the melting point was 174 to 176 °C.

Compound Cc1cccc(-c2n[nH]cc2-c2ccc(F)c(-c3ccc(C(C)(O)C(F)(F)F)cn3)c2)n1 (stereo not drawn) [Example 164, 1,1,1-Trifluoro-2-(6-{2-fluoro-5-[3-(6-methylpyridin-2-yl)-1H-pyrazol-4-yl]phenyl}pyridin-3-yl)propan-2-ol] has a melting point of 197 to 198 °C.

For Cc1cccc(-c2n[nH]cc2-c2ccc(F)c(-c3ccc(C(C)O)cn3)c2)n1 (stereo not drawn) [Example 165, 1-(6-{2-Fluoro-5-[3-(6-methylpyridin-2-yl)-1H-pyrazol-4-yl]phenyl}pyridin-3-yl)ethanol], the melting point was 149 to 151 °C.

For Cc1cccc(-c2n[nH]cc2-c2ccc(F)c(-c3ccc(OCCO)cn3)c2)n1 [Example 166, 2-[(6-{2-Fluoro-5-[3-(6-methylpyridin-2-yl)-1H-pyrazol-4-yl]phenyl}pyridin-3-yl)oxy]ethanol], the melting point was 148 to 151 °C.

With Cc1cccc(-c2n[nH]cc2-c2ccc(F)c(-c3ccc(S(=O)(=O)C(F)(F)F)cc3)c2)n1 [Example 168, 2-(4-{6-Fluoro-4′-[(trifluoromethyl)sulfonyl]-1,1′-biphenyl-3-yl}-1H-pyrazol-3-yl)-6-methylpyridine] the melting point was 81 to 84 °C.

Compound Cc1cccc(-c2n[nH]cc2-c2ccc(F)c(-c3ccc(SCCO)cc3)c2)n1 [Example 169, 2-({2′-Fluoro-5′-[3-(6-methylpyridin-2-yl)-1H-pyrazol-4-yl]-1,1′-biphenyl-4-yl}thio)ethanol] has a melting point of 150 to 152 °C.

With Cc1cccc(-c2n[nH]cc2-c2ccc(F)c(-c3ccc(S(=O)(=O)CCO)cc3)c2)n1 [Example 170, 2-({2′-Fluoro-5′-[3-(6-methylpyridin-2-yl)-1H-pyrazol-4-yl]-1,1′-biphenyl-4-yl}sulfonyl)ethanol] the melting point was 88 to 90 °C.

Compound Cc1cccc(-c2n[nH]cc2-c2ccc(F)c(-c3ccc(S(=O)(=O)C(F)F)cc3)c2)n1 [Example 171, 2-(4-{4′-[(Difluoromethyl)sulfonyl]-6-fluoro-1,1′-biphenyl-3-yl}-1H-pyrazol-3-yl)-6-methylpyridine] has a melting point of 80 to 82 °C.

COC(C)(C)c1ccc(-c2cc(-c3c[nH]nc3-c3cccc(C)n3)ccc2F)nc1 [Example 173, 2-{2-Fluoro-5-[3-(6-methylpyridin-2-yl)-1H-pyrazol-4-yl]phenyl}-5-(1-methoxy-1-methylethyl)pyridine] gave a melting point of 168 to 169 °C.

For CCC(O)(CC)c1ccc(-c2cc(-c3c[nH]nc3-c3cccc(C)n3)ccc2F)nc1 [Example 174, 3-(6-{2-Fluoro-5-[3-(6-methylpyridin-2-yl)-1H-pyrazol-4-yl]phenyl}pyridin-3-yl)pentan-3-ol], the melting point was 94 to 95 °C.

With Cc1cccc(-c2n[nH]cc2-c2ccc(F)c(-c3cnn(CCN4CCOCC4)c3)c2)n1 [Example 175, 4-[2-(4-{2-Fluoro-5-[3-(6-methylpyridin-2-yl)-1H-pyrazol-4-yl]phenyl}-1H-pyrazol-1-yl)ethyl]morpholine] the melting point was 124 °C.

Work on Cc1cccc(-c2n[nH]cc2-c2ccc(F)c(-c3csc(C(C)(C)O)n3)c2)n1 [Example 178, 2-(4-{2-Fluoro-5-[3-(6-methylpyridin-2-yl)-1H-pyrazol-4-yl]phenyl}-1,3-thiazol-2-yl)propan-2-ol] yielded a melting point of 78 to 80 °C.

Cc1cccc(-c2n[nH]cc2-c2ccc(F)c(-c3csc(CO)n3)c2)n1 [Example 182, (4-{2-Fluoro-5-[3-(6-methylpyridin-2-yl)-1H-pyrazol-4-yl]phenyl}-1,3-thiazol-2-yl)methanol] gave a melting point of 89 to 92 °C.

With Cc1cccc(-c2n[nH]cc2-c2ccc(F)c(-c3ncc(C(C)(C)O)cn3)c2)n1 [Example 183, 2-(2-{2-Fluoro-5-[3-(6-methylpyridin-2-yl)-1H-pyrazol-4-yl]phenyl}pyrimidin-5-yl)propan-2-ol] the melting point was 162 °C.

Cc1cccc(-c2n[nH]cc2-c2ccc(F)c(-c3cn(CCN4CCOCC4)cn3)c2)n1 [Example 185, 4-[2-(4-{2-Fluoro-5-[3-(6-methylpyridin-2-yl)-1H-pyrazol-4-yl]phenyl}-1H-imidazol-1-yl)ethyl]morpholine] showed a melting point of 144 to 145 °C.

Cc1cccc(-c2n[nH]cc2-c2ccc(F)c(-c3cn(CCN(C)C)cn3)c2)n1 [Example 186, 2-(4-{2-Fluoro-5-[3-(6-methylpyridin-2-yl)-1H-pyrazol-4-yl]phenyl}-1H-imidazol-1-yl)-N,N-dimethylethylamine] showed a melting point of 130 to 131 °C.

In the case of Cc1cccc(-c2n[nH]cc2-c2ccc(F)c(-c3ccc(N4CCN(C)CC4)nc3)c2)n1 [Example 187, 1-(5-{2-Fluoro-5-[3-(6-methylpyridin-2-yl)-1H-pyrazol-4-yl]phenyl}pyridin-2-yl)-4-methylpiperazine], the melting point is reported as 86 °C.

For Cc1cccc(-c2n[nH]cc2-c2ccc(F)c(-c3ccc(N4CCN(C)CC4)cn3)c2)n1 [Example 188, 1-(6-{2-Fluoro-5-[3-(6-methylpyridin-2-yl)-1H-pyrazol-4-yl]phenyl}pyridin-3-yl)-4-methylpiperazine], the melting point was 97 °C.

With Cc1cccc(-c2n[nH]cc2-c2ccc(F)c(-c3ccc(S(C)(=O)=O)cc3)c2)n1 [Example 191, 2-{4-[6-Fluoro-4′-(methylsulfonyl)-1,1′-biphenyl-3-yl]-1H-pyrazol-3-yl}-6-methylpyridine] the melting point was 100 to 102 °C.

Work on Cc1cccc(-c2n[nH]cc2-c2ccc(F)c(-c3ccc(NC(=O)NN4CCOCC4)cc3)c2)n1 [Example 192, N-{2′-Fluoro-5′-[3-(6-methylpyridin-2-yl)-1H-pyrazol-4-yl]-1,1′-biphenyl-4-yl}-N′-morpholine-4-ylurea] yielded a melting point of 131 to 133 °C.

For Cc1cccc(-c2n[nH]cc2-c2ccc(F)c(-c3ccc[nH]3)c2)n1 [Example 193, 2-{4-[4-Fluoro-3-(1H-pyrrol-2-yl)phenyl]-1H-pyrazol-3-yl}-6-methylpyridine], the melting point was 141 to 142 °C.

For Cc1cccc(-c2n[nH]cc2-c2ccc(F)c(-c3ccc(O)cc3)c2)n1 [Example 197, 2′-Fluoro-5′-[3-(6-methylpyridin-2-yl)-1H-pyrazol-4-yl]-1,1′-biphenyl-4-ol], the melting point was 72 to 74 °C.

For Cc1cccc(-c2nn(C)cc2-c2ccc(F)c(-c3ccc(S(C)(=O)=O)cc3)c2)n1 [Example 199, 2-{4-[6-Fluoro-4′-(methylsulfonyl)-1,1′-biphenyl-3-yl]-1-methyl-1H-pyrazol-3-yl}-6-methylpyridine], the melting point was 66 to 67 °C.

In the case of Cc1cccc(-c2nn(C(C)C)cc2-c2ccc(F)c(-c3ccc(S(C)(=O)=O)cc3)c2)n1 [Example 200, 2-{4-[6-Fluoro-4′-(methylsulfonyl)-1,1′-biphenyl-3-yl]-1-isopropyl-1H-pyrazol-3-yl}-6-methylpyridine], the melting point is reported as 172 to 173 °C.

In the case of Cn1cc(-c2cc(-c3c[nH]nc3-c3ccccn3)ccc2F)cn1 [Example 201, 2-{4-[4-Fluoro-3-(1-methyl-1H-pyrazol-4-yl)phenyl]-1H-pyrazol-3-yl}pyridine], the melting point is reported as 134 to 136 °C.

For CS(=O)(=O)c1ccc(-c2cc(-c3c[nH]nc3-c3cccc(C4CC4)n3)ccc2F)cc1 [Example 203, 2-Cyclopropyl-6-{4-[6-fluoro-4′-(methylsulfonyl)-1,1′-biphenyl-3-yl]-1H-pyrazol-3-yl}pyridine], the melting point was 102 to 104 °C.

NS(=O)(=O)c1ccc(-c2cc(-c3c[nH]nc3-c3cccc(C4CC4)n3)ccc2F)cc1 [Example 204, 5′-[3-(6-Cyclopropylpyridin-2-yl)-1H-pyrazol-4-yl]-2′-fluoro-1,1′-biphenyl-4-sulfonamide] gave a melting point of 225 to 226 °C.

Compound Cc1cccc(-c2n[nH]cc2-c2ccc(F)c(-c3cc[nH]n3)c2)n1 [Example 205, 2-{4-[4-Fluoro-3-(1H-pyrazol-3-yl)phenyl]-1H-pyrazol-3-yl}-6-methylpyridine] has a melting point of 105 to 108 °C.

Cc1cccc(-c2n[nH]cc2-c2ccc(F)c(-c3c[nH]c(C(O)CO)n3)c2)n1 (stereo not drawn) [Example 207, 1-(4-{2-Fluoro-5-[3-(6-methylpyridin-2-yl)-1H-pyrazol-4-yl]phenyl}-1H-imidazol-2-yl)ethane-1,2-diol] gave a melting point of 125 to 127 °C.

Work on Cc1cccc(-c2n[nH]cc2-c2ccc(F)c(-c3c[nH]c(CO)n3)c2)n1 [Example 208, (4-{2-Fluoro-5-[3-(6-methylpyridin-2-yl)-1H-pyrazol-4-yl]phenyl}-1H-imidazol-2-yl)methanol] yielded a melting point of 243 to 246 °C.

With Cc1cccc(-c2n[nH]cc2-c2ccc(F)c(-c3c[nH]c(CC(C)(C)O)n3)c2)n1 [Example 210, 1-(4-{2-Fluoro-5-[3-(6-methylpyridin-2-yl)-1H-pyrazol-4-yl]phenyl}-1H-imidazol-2-yl)-2-methylpropan-2-ol] the melting point was 136 to 140 °C.

With Cc1cccc(-c2n[nH]cc2-c2ccc(F)c(-c3cn4c(n3)[S+]([O-])CC4)c2)n1 (stereo not drawn) [Example 211, 6-{2-Fluoro-5-[3-(6-methylpyridin-2-yl)-1H-pyrazol-4-yl]phenyl}-2,3-dihydroimidazo[2,1-b][1,3]thiazole 1-oxide] the melting point was 140 to 144 °C.

Source: patent publication US20070275968A1, “Substituted Biphenyl Derivative” (priority 2004, published 2007)
